This experiment concerns the target Heat shock protein HSP 90-alpha (Homo sapiens, UniProt P07900). Put plainly: Inhibition of 6x-His tagged human recombinant full length Hsp90alpha ATPase preincubated for 0.5 hrs followed by ATP addition measured after 30 mins by HTRF assay.

Some results are limits rather than exact numbers.

For 12 compounds, IC50 results are on record in ChEMBL document CHEMBL4431352, “Structure-activity relationship of Garcinia xanthones analogues: Potent Hsp90 inhibitors with cytotoxicity and antiangiogenesis activity” (Bioorg Med Chem, 2016).

Turning to `CCOC(=O)COc1cccc2c1C(=O)C1=CC3CC4C(C)(C)OC(CC=C(C)C)(C3=O)C14O2` (configuration not stated), the IC50 – broadly, the concentration that inhibits the measured activity by half – came out at 89.8 µM.

On to `CC(C)=CCC12OCC3CC(C=C4C(=O)c5ccccc5OC431)C2=O` (configuration not stated), for which the IC50 was found to be 35.2 µM. With `C/C(=C\CC12OC(C)(C)C3CC(C=C4C(=O)c5c(O)cccc5OC431)C2=O)CO` (configuration not stated), the IC50 amounted to 27.3 µM.

For `COc1cccc2c1C(=O)C1=CC3CC4C(C)(C)OC(CC=C(C)C)(C3=O)C14O2` (configuration not stated), the IC50 was 76.8 µM. Take `CC(C)=CCC12OC(C)(C)C3CC(C=C4C(=O)c5c(cccc5OS(C)(=O)=O)OC431)C2=O` (configuration not stated): the IC50 came to 67.1 µM. The same measure for `C=CCC12OCC3CC(C=C4C(=O)c5c(O)cccc5OC431)C2=O` (configuration not stated): 8.52 µM. The same measure for `CC(C)=CCC12OC(C)(C)C3CC(C=C4C(=O)c5c(O)cc(O)cc5OC431)C2=O` (configuration not stated): 22.4 µM; for `C/C(=C\CC12OCC3CC(C=C4C(=O)c5c(O)cccc5OC431)C2=O)CCl` (configuration not stated): 6.2 µM.

Turning to `C/C(=C\CC12OC(C)(C)C3CC(C=C4C(=O)c5c(O)cccc5OC431)C2=O)CCl` (configuration not stated), the IC50 turned out to be 15.3 µM. As to `CC(C)=CCC12OC(C)(C)C3CC(C=C4C(=O)c5c(O)cccc5OC431)C2=O` (configuration not stated), the IC50 stood at 15.5 µM. In the case of `CC(C)=CCC12OC(C)(C)C3CC(C=C4C(=O)c5c(OCC(=O)O)cccc5OC431)C2=O` (configuration not stated), the IC50 was greater than 100 µM.

As for `CC(C)=CCC12OC(C)(C)C3CC(C=C4C(=O)c5ccccc5OC431)C2=O` (configuration not stated), the IC50 stood at 23.9 µM.
